Source: patent publication US9238056B2, “Cyclic peptide and conjugate thereof for binding to keratinocytes” (LEO PHARMA A/S, priority 2011, dated 2016)
Bridge positions count the residues as written; N and C are the ends. Ends that are not written are not given here. * marks the point of attachment. Acetylthioacetyl = CC(=O)SCC(=O)*

Experiments:
HaCat cells = conditions: cited from earlier work
[1] = tested on: Adult human epidermal keratinocytes (HEKa); assay: Cathelicidin (CAMP) expression by qPCR in keratinocytes incubated with calcipotriol-loaded liposomes; format: cell-based; conditions: 10^−7 M calcipotriol, 1 h at 37° C. then 24 h, versus placebo RKK12-conjugated liposomes, FIG. 6
Description: Adult human epidermal keratinocytes (HEKa) were obtained from Cascade Biologics (Portland, Oreg., USA) and cultured in EpiLife Medium (Cascade Biologics) containing human keratinocyte growth supplement and gentamicin/Amphotericin B (Cascade Biologics) at 37° C. in a humidified atmosphere with 5% CO2. For the cell interaction assay, 2×10^5 exponentially growing keratinocytes were seeded one day prior to treatment. On the following day (at 80% confluency), the medium was renewed, and the cell culture media was supplied with 15 μl of liposome suspension for a final concentration of 10^−7 M calcipotriol in the well, 15 μl placebo liposomal suspension, or calcipotriol in 0.1% DMSO solution for a final concentration of 10^−7 M and incubated 1 h at 37° C. The liposomes were conjugated with either the RKK12-peptide or the AKK12-peptide. After 1 h, the cells were washed three times with PBS supplemented with 1% BSA, and 1.5 ml media was added followed by incubation for 24 h at 37° C. Subsequently, the medium was removed, and mRNA was extracted using the RNeasy kit from Quiagen (Hilden, Germany). […] The relative change in the expression of CAMP was quantified using the comparative CT method (2^−ΔΔCt)(K. J. Livak and T. D. Schmittgen, Methods 25, 2001, pp. 402-408).

integrin α2β1 receptor = biological target: T1, integrin α2β1 receptor (Homo sapiens, UniProt P17301); conditions: cyclic peptide: in the presence of 2 mM MgCl2; cited from earlier work
T1 sequence (P17301 153-368 limits assumed): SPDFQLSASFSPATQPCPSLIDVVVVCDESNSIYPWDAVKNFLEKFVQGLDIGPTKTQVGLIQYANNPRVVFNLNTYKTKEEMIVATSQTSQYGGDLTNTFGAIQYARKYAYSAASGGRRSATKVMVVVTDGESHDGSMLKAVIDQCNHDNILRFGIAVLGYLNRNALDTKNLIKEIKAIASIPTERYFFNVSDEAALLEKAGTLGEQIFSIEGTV

A431 cells [2] = assay: Binding of DiD-labeled peptide-conjugated liposomes to A431 cells at 4° C. (flow cytometry); format: cell-based, human
Description: (§1) Human epidermal carcinoma cells A431 were subcultured in Dulbecco's modified Eagle's medium (DMEM) containing 3.7 g/l sodium bicarbonate and 4.5 g/l glucose, supplemented with antimicrobial agents, 2 mM L-glutamine and 7.5% (v/v) fetal bovine serum, at 37° C. in a humidified atmosphere containing 5% CO2. Nearly confluent mono-layers of A431 cells were washed with PBS and cells were detached using 1 mM tris-EDTA in PBS. The cells were subsequently suspended in cold PBS supplemented with 1.26 mM CaCl2 and 0.81 mM MgSO4 at 4° C. The cells were counted after centrifugation and 10^5 cells in 100 μl media were incubated with 100 μl liposomes diluted in PBS supplemented with 1.26 mM CaCl and 0.81 mM MgSO4, different concentrations of DiD-labeled liposomes (10-200 nmol total lipid), RKK12-conjugated liposomes (RKK12-liposomes) or AKK12-coupled liposomes (AKK12-liposomes) for 1 h at 4° C.
(§2) In the cellular internalization of liposomes experiment, similar different concentrations of DiD-labeled liposomes (10-200 nmol total lipid) RKK12-liposomes were incubated for 1 hour at 37° C. […] At the end of the incubation period, cells were washed three times in the 5% BSA supplemented PBS-buffer at 4° C., and resuspended in 200 μl PBS supplied with 5% BSA after which they were analyzed on a FACScalibur flow cytometer (Becton-Dickinson). […]

A431 cells [3] = assay: Cellular internalization of DiD-labeled peptide-conjugated liposomes at 37° C. (flow cytometry); format: cell-based, human; conditions: 1 hour at 37° C., FIG. 4
Description: as §1, §2

[4] = biological target: T2, integrin α2β1 receptor on the surface of A431 human epidermal carcinoma cells (human, UniProt P17301 30-1181; P05556 21-798); assay: flow cytometry, DiD-labeled peptide-conjugated liposomes on A431 cells at 4° C.
T2 construct: whole, on cells; Endogenous receptor on A431 cells; also called human integrin α2β1 receptor
T2 sequence (P17301 30-1181, chain 1 of 2): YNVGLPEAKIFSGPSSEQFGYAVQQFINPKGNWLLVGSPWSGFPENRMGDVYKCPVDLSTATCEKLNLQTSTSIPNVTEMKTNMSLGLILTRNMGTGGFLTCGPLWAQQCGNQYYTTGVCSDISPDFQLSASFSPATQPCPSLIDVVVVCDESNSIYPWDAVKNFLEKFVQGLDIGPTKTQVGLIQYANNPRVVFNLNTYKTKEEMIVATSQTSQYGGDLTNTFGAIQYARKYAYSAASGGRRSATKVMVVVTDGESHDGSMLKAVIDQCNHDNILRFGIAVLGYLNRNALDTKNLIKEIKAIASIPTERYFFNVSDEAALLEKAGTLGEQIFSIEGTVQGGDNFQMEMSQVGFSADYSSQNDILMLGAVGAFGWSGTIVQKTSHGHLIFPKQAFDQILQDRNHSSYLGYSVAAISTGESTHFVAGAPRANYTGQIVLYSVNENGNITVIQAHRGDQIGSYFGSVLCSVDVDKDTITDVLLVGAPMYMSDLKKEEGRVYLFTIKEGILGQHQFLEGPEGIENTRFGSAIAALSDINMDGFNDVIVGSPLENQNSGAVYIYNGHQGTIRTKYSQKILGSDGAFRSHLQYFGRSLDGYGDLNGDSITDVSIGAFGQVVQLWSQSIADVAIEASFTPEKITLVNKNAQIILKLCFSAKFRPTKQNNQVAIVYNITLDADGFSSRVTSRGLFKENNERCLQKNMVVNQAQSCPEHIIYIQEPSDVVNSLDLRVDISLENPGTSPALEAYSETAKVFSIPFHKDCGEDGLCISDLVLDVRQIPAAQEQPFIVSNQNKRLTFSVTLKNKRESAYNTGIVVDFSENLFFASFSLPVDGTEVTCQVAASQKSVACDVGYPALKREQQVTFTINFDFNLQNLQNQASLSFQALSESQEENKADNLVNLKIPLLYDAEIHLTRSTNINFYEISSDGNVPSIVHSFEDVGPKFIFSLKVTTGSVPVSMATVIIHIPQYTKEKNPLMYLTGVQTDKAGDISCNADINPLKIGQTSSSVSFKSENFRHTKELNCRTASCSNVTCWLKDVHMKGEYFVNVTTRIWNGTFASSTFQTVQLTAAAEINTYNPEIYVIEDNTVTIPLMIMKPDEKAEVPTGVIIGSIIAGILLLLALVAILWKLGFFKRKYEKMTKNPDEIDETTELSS
T2 sequence (P05556 21-798, chain 2 of 2): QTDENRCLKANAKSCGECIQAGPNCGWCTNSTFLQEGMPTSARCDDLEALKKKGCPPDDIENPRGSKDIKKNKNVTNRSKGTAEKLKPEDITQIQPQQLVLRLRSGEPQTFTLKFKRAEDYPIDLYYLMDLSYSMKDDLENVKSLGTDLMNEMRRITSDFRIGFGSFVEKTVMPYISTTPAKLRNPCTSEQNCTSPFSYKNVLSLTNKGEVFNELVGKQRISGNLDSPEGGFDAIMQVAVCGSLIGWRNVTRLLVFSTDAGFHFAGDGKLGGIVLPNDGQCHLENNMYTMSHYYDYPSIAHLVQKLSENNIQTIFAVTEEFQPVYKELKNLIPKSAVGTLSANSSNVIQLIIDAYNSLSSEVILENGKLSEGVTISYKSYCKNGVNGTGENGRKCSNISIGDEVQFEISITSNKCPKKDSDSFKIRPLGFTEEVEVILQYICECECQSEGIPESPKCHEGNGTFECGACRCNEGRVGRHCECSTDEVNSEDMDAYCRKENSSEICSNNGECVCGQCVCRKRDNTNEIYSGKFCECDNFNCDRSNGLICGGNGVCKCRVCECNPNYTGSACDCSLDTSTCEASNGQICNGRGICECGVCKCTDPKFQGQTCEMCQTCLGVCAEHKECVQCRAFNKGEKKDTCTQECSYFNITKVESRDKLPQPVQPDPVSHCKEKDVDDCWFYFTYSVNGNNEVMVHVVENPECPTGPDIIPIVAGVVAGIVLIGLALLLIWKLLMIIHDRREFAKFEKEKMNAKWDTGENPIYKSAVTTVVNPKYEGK

Question: With `C=C1/C(=C\C=C2/CCC[C@]3(C)[C@@H]([C@H](C)/C=C/[C@@H](O)C4CC4)CC[C@@H]23)C[C@@H](O)C[C@@H]1O` [calcipotriol] as the molecule, how does the levels of cathelicidin (HaCat cells) read?
Answer: Increased levels

Question: Which “expression of cathelicidin (CAMP) normalized to GAPDH” value [1] does the source give for “AKK12-conjugated liposomes: calcipotriol-loaded liposomes conjugated with the control peptide AKK12 (cyclo(KHDNRQSK(Acetylthioacetyl)STAK); not fully specified)” here?
Answer: no significant difference between the formulations

Question: For “C^241TRKKHDNAQ^249C: nine amino acid long cyclic peptide with RKK motif derived from jararhagin (Ivaska et al.) (CTRKKHDNAQC; disulfide 1-11)”, which “inhibition of collagen I interaction with the integrin α2β1 receptor” value (integrin α2β1 receptor) is on record?
Answer: inhibit the interaction

Question: Which results are given for “RKK12-liposomes: DiD-labeled liposomes (DSPC, PEG2000-DSPE, Mal-PEG2000-DSPE, cholesterol) conjugated with RKK12 peptide (cyclo(KHDNAQSK(Acetylthioacetyl)STRK); also: conjugated to DiD-labeled liposomes)”?
Answer: association of liposomes at low Mg2+ concentrations, versus AKK12-conjugated liposomes (A431 cells [2]; 4° C., PBS not supplied with CaCl2 or MgSO4, FIG. 5): only slightly higher; fluorescence of cells (association of liposomes) (A431 cells [2]; 1 h at 4° C., PBS with 1.26 mM CaCl2 and 0.81 mM MgSO4, 10-200 nmol total lipid, FIG. 3): significantly more fluorescent; internalization (cellular uptake) of liposomes (A431 cells [3]): highest

B1: AKK12 head-to-tail cyclized control peptide H-KHDNRQS-(SATA)KSTAK-OH, conjugated to DiD-labeled liposomes (peptide)
peptide: cyclo(KHDNRQSKSTAK)
modifications: not fully specified (residue 8)
notes: Control peptide with similar charge as RKK12 but without the RKK motif (Arg and Ala exchanged); tested only as a liposome conjugate; also called AKK12-peptide; AKK12-liposomes
Question: Does B1 bind [4]?
Answer: binds

B2: RKK12 head-to-tail cyclized targeting peptide H-KHDNAQS-(SATA)KSTRK-OH, conjugated to DiD-labeled liposomes (peptide)
peptide: cyclo(KHDNAQSKSTRK)
modifications: not fully specified (residue 8)
notes: Synthetic cyclic peptide; tested only as a conjugate on the surface of DiD-labeled PEGylated liposomes, so many copies per particle; also called RKK12-peptide; RKK-12 peptide
Question: Does B2 bind [4]?
Answer: binds
